From publication PMC12446476 (Nature Communications, 2025) come the findings set out here.

Series [1] has as its system Salmonella typhimurium (TA1535, TA1537, TA98 and TA100). In kind it is cell-based. As to the method:
Ames assays were performed using four strains of Salmonella typhimurium (TA1535, TA1537, TA98 and TA100) and a single strain of E. coli (WRP2 uvrA) in the presence and absence of S9 tissue homogenate. Dose levels (µg/plate) up to 4000 were assessed for WP2 uvrA and TA98, 500 for TA1535, 250 for TA1537 and 62.5 for TA100.

In another series the test system is N. gonorrhoeae. The series can be described thus: MIC determination, agar dilution (CLSI). In kind it is cell-based, Neisseria gonorrhoeae. The text has this: The 2024 WHO N. gonorrhoeae reference strains were used for quality control. Only whole MIC doubling dilutions are reported. Clinical breakpoints or the epidemiological cutoff (ECOFF, to indicate azithromycin resistance) from EUCAST (v14.0, https://www.eucast.org/clinical_breakpoints) were used to classify isolates as antimicrobial susceptible or resistant. […] Two times the standard inoculum defined by CLSI was used to establish consistent growth in untreated control samples for some strains. In vitro time-kill assays were performed according to CLSI guidelines[65] using Columbia Broth (BD Difco) supplemented with 1% IsoVitaleX Enrichment (BD). Viable bacterial counts were generated by plating 10-fold serially diluted samples on GC agar plates containing 1% IsoVitaleX Enrichment (BD).

Setting [2] is: TA98, without S9, positive control 2 µg/plate.
Setting [3] is: TA1537, without S9, positive control 50 µg/plate.
[4] abbreviates: screening panel N. gonorrhoeae isolate A.
The mark [5] stands for this setting: screening panel N. gonorrhoeae isolate B.
Setting [6] is: screening panel N. gonorrhoeae isolate C.
[7] abbreviates: screening panel N. gonorrhoeae isolate D.
Where [8] appears, read: screening panel N. gonorrhoeae isolate E.
Where [9] appears, read: screening panel N. gonorrhoeae isolate F.
The mark [10] stands for this setting: screening panel N. gonorrhoeae isolate G.
[11] abbreviates: screening panel N. gonorrhoeae isolate H.
Where [12] appears, read: screening panel N. gonorrhoeae isolate I.
[13] abbreviates: screening panel N. gonorrhoeae isolate J.
The mark [14] stands for this setting: screening panel N. gonorrhoeae isolate K.
Setting [15] is: screening panel N. gonorrhoeae isolate L.
Setting [16] is: screening panel N. gonorrhoeae isolate M.
Where [17] appears, read: screening panel N. gonorrhoeae isolate N.
[18] abbreviates: TA100, without S9, positive control 1 µg/plate.
Where [19] appears, read: TA1535, without S9, positive control 1 µg/plate.

Structures are written as SMILES. Converted amounts (≈) assume the structure as drawn. “And” between values parts separate entries of the source, which are not always exact repeats. Identical values can stand only once. Like-named read-outs stand apart in the source and are kept apart here.

With `O=[N+]([O-])c1ccc2c(c1)Cc1ccccc1-2` [2-Nitrofluorene, reference compound], in series [1] (setting [2]), the “Ames bacterial mutation assessment, Mean” value worked out at 173; the Colony count is 177 and 172 and 169.

As to `Nc1c2ccccc2nc2ccccc12` [9-Aminoacridine, reference compound], in series [1] (setting [3]), the “Ames bacterial mutation assessment, Mean” value is given as 142; the Colony count is 128 and 153 and 146.

For `O=C1CCNc2cc(C=CC(=O)N3CC4C=C(c5ccccc5)CC4C3)cnc2N1` (stereo not shown) [Compound 3], the Minimum inhibitory concentration is recorded as 4 µg/mL (≈ 9.99 µM) in the series on N. gonorrhoeae (setting [4]); 2 µg/mL (≈ 4.99 µM) with N. gonorrhoeae (setting [5]); 1 µg/mL (≈ 2.5 µM) in the series with N. gonorrhoeae (setting [6]); 2 µg/mL (≈ 4.99 µM) in the series on N. gonorrhoeae (setting [7]); 1 µg/mL (≈ 2.5 µM) in the series on N. gonorrhoeae (setting [8]); 4 µg/mL (≈ 9.99 µM) in the series on N. gonorrhoeae (setting [9]). Besides, the Minimum inhibitory concentration is recorded as 4 µg/mL (≈ 9.99 µM) with N. gonorrhoeae (setting [10]); 4 µg/mL (≈ 9.99 µM) in the series on N. gonorrhoeae (setting [11]); 2 µg/mL (≈ 4.99 µM) in the series with N. gonorrhoeae (setting [12]); 2 µg/mL (≈ 4.99 µM) in the series on N. gonorrhoeae (setting [13]); >8 µg/mL in the series with N. gonorrhoeae (setting [14]); 2 µg/mL (≈ 4.99 µM) with N. gonorrhoeae (setting [15]). The Minimum inhibitory concentration stood at 2 µg/mL (≈ 4.99 µM) in the series on N. gonorrhoeae (setting [16]) and 1 µg/mL (≈ 2.5 µM) in the series on N. gonorrhoeae (setting [17]).

On to `O=C1CCNc2cc(/C=C/C(=O)N3CCC=C(c4ccccc4)CC3)cnc2N1` [Compound 4], for which the Minimum inhibitory concentration amounted to 4 µg/mL (≈ 10.3 µM) in the series with N. gonorrhoeae (setting [4]); 2 µg/mL (≈ 5.15 µM) in the series on N. gonorrhoeae (setting [5]); 2 µg/mL (≈ 5.15 µM) in the series on N. gonorrhoeae (setting [6]); 2 µg/mL (≈ 5.15 µM) in the series on N. gonorrhoeae (setting [7]); 1 µg/mL (≈ 2.57 µM) in the series on N. gonorrhoeae (setting [8]); 4 µg/mL (≈ 10.3 µM) in the series on N. gonorrhoeae (setting [9]). Also, the Minimum inhibitory concentration in the series with N. gonorrhoeae (setting [10]) worked out at 4 µg/mL (≈ 10.3 µM); in the series on N. gonorrhoeae (setting [11]), 4 µg/mL (≈ 10.3 µM); with N. gonorrhoeae (setting [12]), 2 µg/mL (≈ 5.15 µM); in the series with N. gonorrhoeae (setting [13]) it was 2 µg/mL (≈ 5.15 µM); in the series on N. gonorrhoeae (setting [14]) it was 4 µg/mL (≈ 10.3 µM); in the series on N. gonorrhoeae (setting [15]) it was 2 µg/mL (≈ 5.15 µM). The Minimum inhibitory concentration is 2 µg/mL (≈ 5.15 µM) with N. gonorrhoeae (setting [16]) and 1 µg/mL (≈ 2.57 µM) in the series on N. gonorrhoeae (setting [17]).

Regarding `Cc1oc2ccccc2c1CN(C)C(=O)/C=C/c1cnc2c(c1)NCCC(=O)N2` [Compound 5], the Minimum inhibitory concentration in the series on N. gonorrhoeae (setting [4]) amounted to 1 µg/mL (≈ 2.56 µM); with N. gonorrhoeae (setting [5]) it was 1 µg/mL (≈ 2.56 µM); with N. gonorrhoeae (setting [6]) it was 1 µg/mL (≈ 2.56 µM); in the series on N. gonorrhoeae (setting [7]) it was 1 µg/mL (≈ 2.56 µM); in the series with N. gonorrhoeae (setting [8]), 0.5 µg/mL (≈ 1.28 µM); in the series with N. gonorrhoeae (setting [9]) it was 2 µg/mL (≈ 5.12 µM). The Minimum inhibitory concentration in the series with N. gonorrhoeae (setting [10]) is on record as 2 µg/mL (≈ 5.12 µM); in the series with N. gonorrhoeae (setting [11]) it was 2 µg/mL (≈ 5.12 µM); in the series on N. gonorrhoeae (setting [12]), 0.5 µg/mL (≈ 1.28 µM); with N. gonorrhoeae (setting [13]), 1 µg/mL (≈ 2.56 µM); with N. gonorrhoeae (setting [14]), 2 µg/mL (≈ 5.12 µM); in the series with N. gonorrhoeae (setting [15]) it was 1 µg/mL (≈ 2.56 µM). In addition, the Minimum inhibitory concentration in the series with N. gonorrhoeae (setting [16]) stood at 1 µg/mL (≈ 2.56 µM); with N. gonorrhoeae (setting [17]) it was 0.5 µg/mL (≈ 1.28 µM).

In the case of `Cc1c(CN(C)C(=O)/C=C/c2cnc3c(c2)N[C@@H](C)[C@@H](O)C(=O)N3)oc2ccccc12` [Compound 9], the Minimum inhibitory concentration in the series with N. gonorrhoeae (setting [4]) was 2 µg/mL (≈ 4.76 µM); with N. gonorrhoeae (setting [5]), 1 µg/mL (≈ 2.38 µM); in the series on N. gonorrhoeae (setting [6]), 1 µg/mL (≈ 2.38 µM); with N. gonorrhoeae (setting [7]) it was 1 µg/mL (≈ 2.38 µM); in the series on N. gonorrhoeae (setting [8]), ≤0.5 µg/mL; with N. gonorrhoeae (setting [9]), 2 µg/mL (≈ 4.76 µM). For the same molecule, the Minimum inhibitory concentration came to 2 µg/mL (≈ 4.76 µM) with N. gonorrhoeae (setting [10]); 2 µg/mL (≈ 4.76 µM) in the series on N. gonorrhoeae (setting [11]); 1 µg/mL (≈ 2.38 µM) in the series with N. gonorrhoeae (setting [12]); 1 µg/mL (≈ 2.38 µM) in the series with N. gonorrhoeae (setting [13]); 2 µg/mL (≈ 4.76 µM) in the series with N. gonorrhoeae (setting [14]); 1 µg/mL (≈ 2.38 µM) in the series with N. gonorrhoeae (setting [15]). For the same molecule, the Minimum inhibitory concentration with N. gonorrhoeae (setting [16]) and in the series on N. gonorrhoeae (setting [17]) was 1 µg/mL (≈ 2.38 µM) throughout.

Take `[N-]=[N+]=[N-].[Na+]` [Sodium azide, reference compound]: the “Ames bacterial mutation assessment, Mean” value in series [1] (setting [18]) was determined as 555; in series [1] (setting [19]), 433. The Colony count in series [1] (setting [18]) is 508 and 554 and 602; in series [1] (setting [19]) it was 428 and 408 and 464.
